Experimental data from US7863014B2 (priority 2001, dated 2011).

Assays:
[1] = test system: polyphosphate-dependent NAD kinase from Micrococcus flavus; format: biochemical
[2] = target: M. tuberculosis Ppnk protein (Mycobacterium tuberculosis, UniProt P9WHV7); format: biochemical, M. tuberculosis H37Rv
M. tuberculosis Ppnk protein, sequence (P9WHV7 whole entry): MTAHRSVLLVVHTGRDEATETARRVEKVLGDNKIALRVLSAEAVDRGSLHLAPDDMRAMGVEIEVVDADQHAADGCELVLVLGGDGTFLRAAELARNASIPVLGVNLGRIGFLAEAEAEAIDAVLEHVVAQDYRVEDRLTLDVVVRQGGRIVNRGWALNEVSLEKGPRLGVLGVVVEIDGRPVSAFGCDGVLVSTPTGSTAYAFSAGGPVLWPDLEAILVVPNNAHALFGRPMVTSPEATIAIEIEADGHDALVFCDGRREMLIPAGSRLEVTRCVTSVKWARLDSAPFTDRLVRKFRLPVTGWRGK

SMILES	Activation by metal ions [1]	Activation by metal ions [2]	also measured
[Cl-].[Cl-].[Co+2] [CoCl2]	CoCl2 (51%)	CoCl2 (55%)	
Nc1ncnc2c1ncn2[C@@H]1O[C@H](COP(=O)(O)OP(=O)(O)OP(=O)(O)O)[C@@H](O)[C@H]1O [ATP]			ATP/polyphosphate reaction ratio [1]: ATP (100%); ATP/polyphosphate reaction ratio [2]: ATP (100%)
[Cl][Al]([Cl])[Cl] [AlCl3]	AlCl3 (0%)	AlCl3 (0%)	
[Cl-].[Cl-].[Zn+2] [ZnCl2]	ZnCl2 (30%)	ZnCl2 (30%)	
[Cl][Cu][Cl] [CuCl2]	CuCl2 (33%)	CuCl2 (8%)	
[Cl-].[Cl-].[Mg+2] [MgCl2]	MgCl2 (100%)	MgCl2 (100%)	
[Cl][Mn][Cl] [MnCl2]	MnCl2 (143%)	MnCl2 (268%)	
[Ca+2].[Cl-].[Cl-] [CaCl2]	CaCl2 (65%)	CaCl2 (34%)	
O=P1(O)OP(=O)(O)OP(=O)(O)OP(=O)(O)OP(=O)(O)OP(=O)(O)O1 [hexametaphosphate]			Polyphosphate specificity [1]: (58%); Polyphosphate specificity [2]: (72%)
